Patent US10457691B2, “Macrocyclic kinase inhibitors and uses thereof” (Dana-Farber Cancer Institute, Inc., priority 2014, dated 2019)

Key:
Format in all cases: biochemical
[1] = target: CAMK1 (Homo sapiens, UniProt Q14012); assay: Protein kinase assay ([γ-32P] ATP), CAMK1; conditions: read-out: Activity of the protein kinase when treated with compound I-1 (% control)
Method: (§1) In another set of experiments, the activities of the compounds described herein against various protein kinases were determined according to the methods reported in Hastie et al., Nature Protocols, 2006, 1, 968-971.
(§2) Enzyme dilution buffer. This buffer consisted of 50 mM Tris-HCl, pH 7.5, 0.1 mM EGTA, 1 mg ml^−1 bovine serum albumin and 0.1% (vol/vol) 2-mercaptoethanol.
(§3) 10× concentrated assay buffer. An assay buffer of 500 mM Tris-HCl, pH 7.5, 1 mM EGTA, and 100 mM magnesium acetate was used for assay of a wide variety of protein kinases. In some experiments, other cofactors were included (e.g., calcium ions and calmodulin were included for assay of calcium-calmodulindependent protein kinases).
(§4) 1 mM [γ-^32P] ATP. The specific activity of the [γ-^32P] ATP solution was 1×10^5 to 1×10^6 c.p.m. per nmol depending on what was needed to produce an optimal signal/noise ratio. […] To measure the concentration of ATP, a sample of such a stock solution was diluted to 20 μM, and the absorbance of the diluted sample was measured at 259 nm. The absorbance of a 20-μM stock solution of ATP at 259 nm was about 0.31. […] ATP to produce a radioactivity of 1×10^5 to 1×10^6 c.p.m. per nmol. […]
(§5) 13) Measure radioactivity in the samples by Cerenkov counting (e.g., without liquid scintillation fluid) in a liquid scintillation counter using a “^32P program”. […]

[2] = target: BRK (Homo sapiens, UniProt Q13882); assay: Protein kinase assay ([γ-32P] ATP), BRK; conditions: read-out: Activity of the protein kinase when treated with compound I-1 (% control)
Method: as §1, §2, §3, §4, §5

[3] = target: PKBb (Homo sapiens, UniProt P31751); assay: Protein kinase assay ([γ-32P] ATP), PKBb; conditions: read-out: Activity of the protein kinase when treated with compound I-1 (% control)
Method: as §1, §2, §3, §4, §5

[4] = target: PIM2 (Homo sapiens, UniProt Q9P1W9); assay: Protein kinase assay ([γ-32P] ATP), PIM2; conditions: read-out: Activity of the protein kinase when treated with compound I-1 (% control)
Method: as §1, §2, §3, §4, §5

[5] = target: WNK1 (Homo sapiens, UniProt Q9H4A3); assay: Protein kinase assay ([γ-32P] ATP), WNK1; conditions: read-out: Activity of the protein kinase when treated with compound I-1 (% control)
Method: as §1, §2, §3, §4, §5

[6] = target: MST4 (Homo sapiens, UniProt Q9P289); assay: Protein kinase assay ([γ-32P] ATP), MST4; conditions: read-out: Activity of the protein kinase when treated with compound I-1 (% control)
Method: as §1, §2, §3, §4, §5

[7] = target: MARK3 (Homo sapiens, UniProt P27448); assay: Protein kinase assay ([γ-32P] ATP), MARK3; conditions: read-out: Activity of the protein kinase when treated with compound I-1 (% control)
Method: as §1, §2, §3, §4, §5

[8] = tested on: AMPK; assay: Protein kinase assay ([γ-32P] ATP), AMPK
Method: as §1, §2, §3, §4, §5

[9] = target: Aurora A (Homo sapiens, UniProt O14965); assay: Protein kinase assay ([γ-32P] ATP), Aurora A; conditions: read-out: Activity of the protein kinase when treated with compound I-1 (% control)
Method: as §1, §2, §3, §4, §5

[10] = target: TIE2 (Homo sapiens, UniProt Q02763); assay: Protein kinase assay ([γ-32P] ATP), TIE2; conditions: read-out: Activity of the protein kinase when treated with compound I-1 (% control)
Method: as §1, §2, §3, §4, §5

[11] = target: MKK2 (Homo sapiens, UniProt P36507); assay: Protein kinase assay ([γ-32P] ATP), MKK2; conditions: read-out: Activity of the protein kinase when treated with compound I-1 (% control)
Method: as §1, §2, §3, §4, §5

[12] = target: HIPK1 (Homo sapiens, UniProt Q86Z02); assay: Protein kinase assay ([γ-32P] ATP), HIPK1; conditions: read-out: Activity of the protein kinase when treated with compound I-1 (% control)
Method: as §1, §2, §3, §4, §5

[13] = target: NUAK1 (Homo sapiens, UniProt O60285); assay: Protein kinase assay ([γ-32P] ATP), NUAK1; conditions: read-out: Activity of the protein kinase when treated with compound I-1 (% control)
Method: as §1, §2, §3, §4, §5

[14] = target: NEK6 (Homo sapiens, UniProt Q9HC98); assay: Protein kinase assay ([γ-32P] ATP), NEK6; conditions: read-out: Activity of the protein kinase when treated with compound I-1 (% control)
Method: as §1, §2, §3, §4, §5

[15] = target: CDK2-Cyclin A (Homo sapiens, UniProt P24941); assay: Protein kinase assay ([γ-32P] ATP), CDK2-Cyclin A; conditions: read-out: Activity of the protein kinase when treated with compound I-1 (% control)
Method: as §1, §2, §3, §4, §5

[16] = target: MNK2 (Homo sapiens, UniProt Q9HBH9); assay: Protein kinase assay ([γ-32P] ATP), MNK2; conditions: read-out: Activity of the protein kinase when treated with compound I-1 (% control)
Method: as §1, §2, §3, §4, §5

[17] = target: MARK1 (Homo sapiens, UniProt Q9P0L2); assay: Protein kinase assay ([γ-32P] ATP), MARK1; conditions: read-out: Activity of the protein kinase when treated with compound I-1 (% control)
Method: as §1, §2, §3, §4, §5

[18] = 0.1 μM of compound I-1, DMSO control = 100%
[19] = 1 μM of compound I-1, DMSO control = 100%

NUAK1, sequence (O60285 whole entry): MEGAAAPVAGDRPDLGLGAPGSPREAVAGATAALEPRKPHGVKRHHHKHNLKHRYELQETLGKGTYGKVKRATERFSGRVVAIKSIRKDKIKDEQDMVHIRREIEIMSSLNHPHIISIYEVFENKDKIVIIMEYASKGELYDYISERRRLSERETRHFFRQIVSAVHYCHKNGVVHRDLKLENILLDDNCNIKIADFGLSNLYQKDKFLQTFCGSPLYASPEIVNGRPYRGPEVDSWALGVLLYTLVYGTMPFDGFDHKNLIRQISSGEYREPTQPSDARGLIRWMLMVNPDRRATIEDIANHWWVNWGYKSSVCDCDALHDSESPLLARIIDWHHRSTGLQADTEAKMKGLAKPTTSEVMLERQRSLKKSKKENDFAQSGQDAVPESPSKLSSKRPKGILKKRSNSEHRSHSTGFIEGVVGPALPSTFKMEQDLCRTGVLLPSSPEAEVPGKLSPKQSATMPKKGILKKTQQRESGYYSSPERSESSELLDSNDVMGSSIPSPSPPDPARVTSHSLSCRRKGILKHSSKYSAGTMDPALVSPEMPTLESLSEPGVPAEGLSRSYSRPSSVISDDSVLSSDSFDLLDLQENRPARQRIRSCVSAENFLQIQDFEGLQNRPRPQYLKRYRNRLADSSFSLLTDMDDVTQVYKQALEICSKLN
MST4, sequence (Q9P289 whole entry): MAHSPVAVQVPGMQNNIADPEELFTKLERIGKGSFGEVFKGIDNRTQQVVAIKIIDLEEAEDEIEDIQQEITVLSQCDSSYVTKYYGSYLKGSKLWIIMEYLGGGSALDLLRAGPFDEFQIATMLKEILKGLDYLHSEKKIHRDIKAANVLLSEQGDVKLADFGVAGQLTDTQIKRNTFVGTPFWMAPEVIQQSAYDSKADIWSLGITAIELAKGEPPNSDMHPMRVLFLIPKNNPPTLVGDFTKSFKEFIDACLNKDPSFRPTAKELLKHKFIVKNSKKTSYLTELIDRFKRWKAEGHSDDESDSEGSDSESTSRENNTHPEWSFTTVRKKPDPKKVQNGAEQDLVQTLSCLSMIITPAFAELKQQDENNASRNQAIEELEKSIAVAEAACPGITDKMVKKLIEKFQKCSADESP
Aurora A, sequence (O14965 whole entry): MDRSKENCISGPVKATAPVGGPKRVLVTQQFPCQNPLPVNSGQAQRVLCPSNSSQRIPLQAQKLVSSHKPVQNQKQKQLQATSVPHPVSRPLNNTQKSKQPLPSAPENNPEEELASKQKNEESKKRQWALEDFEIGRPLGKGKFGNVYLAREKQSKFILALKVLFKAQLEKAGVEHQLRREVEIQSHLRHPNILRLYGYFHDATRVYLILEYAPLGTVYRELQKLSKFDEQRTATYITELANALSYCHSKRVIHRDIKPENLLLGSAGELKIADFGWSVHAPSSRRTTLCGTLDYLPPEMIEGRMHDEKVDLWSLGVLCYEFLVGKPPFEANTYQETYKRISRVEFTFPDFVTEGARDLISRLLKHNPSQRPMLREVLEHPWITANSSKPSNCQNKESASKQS
MARK1, sequence (Q9P0L2 whole entry): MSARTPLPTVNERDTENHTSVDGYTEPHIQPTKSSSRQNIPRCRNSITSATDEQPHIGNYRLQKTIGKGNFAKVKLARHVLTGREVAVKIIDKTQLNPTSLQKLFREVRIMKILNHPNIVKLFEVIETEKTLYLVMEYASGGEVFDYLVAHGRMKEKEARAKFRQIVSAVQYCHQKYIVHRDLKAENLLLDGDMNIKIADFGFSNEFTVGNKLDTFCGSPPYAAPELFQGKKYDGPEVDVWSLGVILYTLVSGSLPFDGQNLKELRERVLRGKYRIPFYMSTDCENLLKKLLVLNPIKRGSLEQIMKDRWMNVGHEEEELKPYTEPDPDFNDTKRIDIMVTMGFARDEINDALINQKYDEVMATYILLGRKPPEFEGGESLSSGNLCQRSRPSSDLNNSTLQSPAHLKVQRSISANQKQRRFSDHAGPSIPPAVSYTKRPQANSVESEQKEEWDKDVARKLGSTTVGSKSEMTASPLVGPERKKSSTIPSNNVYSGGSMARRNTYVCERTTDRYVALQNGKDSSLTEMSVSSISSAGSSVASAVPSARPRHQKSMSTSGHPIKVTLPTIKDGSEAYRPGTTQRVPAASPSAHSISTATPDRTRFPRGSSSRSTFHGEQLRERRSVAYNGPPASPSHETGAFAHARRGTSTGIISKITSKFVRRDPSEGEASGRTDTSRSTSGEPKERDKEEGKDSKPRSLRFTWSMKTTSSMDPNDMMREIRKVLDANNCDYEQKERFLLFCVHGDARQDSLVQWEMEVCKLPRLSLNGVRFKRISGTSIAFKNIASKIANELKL
NEK6, sequence (Q9HC98 whole entry): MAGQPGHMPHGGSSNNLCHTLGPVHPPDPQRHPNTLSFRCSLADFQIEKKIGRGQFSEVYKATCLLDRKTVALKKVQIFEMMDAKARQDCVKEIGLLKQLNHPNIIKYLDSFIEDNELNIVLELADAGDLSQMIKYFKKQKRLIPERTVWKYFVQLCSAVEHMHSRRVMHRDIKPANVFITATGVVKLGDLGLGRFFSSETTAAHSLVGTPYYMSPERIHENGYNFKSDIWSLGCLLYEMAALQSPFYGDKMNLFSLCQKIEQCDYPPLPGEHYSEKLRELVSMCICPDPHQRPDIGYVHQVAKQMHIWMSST
TIE2, sequence (Q02763 23-1124, species assumed): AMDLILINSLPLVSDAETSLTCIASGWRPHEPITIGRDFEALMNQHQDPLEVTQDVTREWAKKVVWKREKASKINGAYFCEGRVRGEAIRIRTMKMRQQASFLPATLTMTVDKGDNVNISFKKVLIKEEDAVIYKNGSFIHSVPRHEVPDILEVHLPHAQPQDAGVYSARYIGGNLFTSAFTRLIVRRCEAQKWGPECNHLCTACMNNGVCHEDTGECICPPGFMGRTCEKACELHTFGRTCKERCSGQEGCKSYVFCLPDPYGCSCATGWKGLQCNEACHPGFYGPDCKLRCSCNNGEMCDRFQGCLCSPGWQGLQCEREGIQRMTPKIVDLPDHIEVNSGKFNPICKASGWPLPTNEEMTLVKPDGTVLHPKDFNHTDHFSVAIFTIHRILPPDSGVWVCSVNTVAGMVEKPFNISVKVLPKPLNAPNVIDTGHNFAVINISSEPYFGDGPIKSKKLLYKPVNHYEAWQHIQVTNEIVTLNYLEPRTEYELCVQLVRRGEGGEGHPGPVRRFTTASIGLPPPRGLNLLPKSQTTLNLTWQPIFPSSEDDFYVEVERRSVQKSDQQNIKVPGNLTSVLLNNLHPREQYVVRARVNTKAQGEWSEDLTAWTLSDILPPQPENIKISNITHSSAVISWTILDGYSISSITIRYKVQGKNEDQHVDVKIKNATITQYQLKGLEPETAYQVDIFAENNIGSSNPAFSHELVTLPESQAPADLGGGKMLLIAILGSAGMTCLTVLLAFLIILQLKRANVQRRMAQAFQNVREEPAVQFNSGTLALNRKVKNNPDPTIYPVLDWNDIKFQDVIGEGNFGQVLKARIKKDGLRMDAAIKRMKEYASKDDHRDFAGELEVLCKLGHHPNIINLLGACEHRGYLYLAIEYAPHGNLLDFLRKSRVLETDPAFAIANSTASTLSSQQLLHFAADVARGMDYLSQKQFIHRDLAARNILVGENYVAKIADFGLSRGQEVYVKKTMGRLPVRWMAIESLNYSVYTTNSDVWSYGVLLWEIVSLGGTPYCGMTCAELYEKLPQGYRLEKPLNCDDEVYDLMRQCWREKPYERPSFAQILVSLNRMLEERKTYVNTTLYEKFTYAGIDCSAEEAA
CAMK1, sequence (Q14012 whole entry): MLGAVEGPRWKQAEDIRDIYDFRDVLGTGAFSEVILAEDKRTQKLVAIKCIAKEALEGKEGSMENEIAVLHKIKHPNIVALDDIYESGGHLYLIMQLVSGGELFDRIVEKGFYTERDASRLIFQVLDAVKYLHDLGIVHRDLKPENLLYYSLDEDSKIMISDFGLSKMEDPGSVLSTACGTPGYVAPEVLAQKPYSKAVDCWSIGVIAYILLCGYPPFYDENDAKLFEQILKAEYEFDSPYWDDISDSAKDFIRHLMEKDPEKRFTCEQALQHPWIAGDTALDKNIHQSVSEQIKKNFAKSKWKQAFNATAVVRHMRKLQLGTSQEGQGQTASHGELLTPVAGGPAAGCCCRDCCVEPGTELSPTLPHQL
MKK2, sequence (P36507 whole entry): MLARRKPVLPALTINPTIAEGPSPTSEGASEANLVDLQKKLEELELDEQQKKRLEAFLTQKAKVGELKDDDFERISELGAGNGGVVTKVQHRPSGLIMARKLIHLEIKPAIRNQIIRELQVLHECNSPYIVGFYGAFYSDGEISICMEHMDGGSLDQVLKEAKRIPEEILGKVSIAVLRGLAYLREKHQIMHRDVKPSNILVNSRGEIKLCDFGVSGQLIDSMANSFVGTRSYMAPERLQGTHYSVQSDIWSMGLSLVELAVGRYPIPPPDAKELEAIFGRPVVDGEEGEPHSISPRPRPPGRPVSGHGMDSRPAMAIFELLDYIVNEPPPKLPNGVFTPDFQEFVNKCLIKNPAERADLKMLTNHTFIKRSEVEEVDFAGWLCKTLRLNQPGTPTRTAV
BRK, sequence (Q13882 whole entry): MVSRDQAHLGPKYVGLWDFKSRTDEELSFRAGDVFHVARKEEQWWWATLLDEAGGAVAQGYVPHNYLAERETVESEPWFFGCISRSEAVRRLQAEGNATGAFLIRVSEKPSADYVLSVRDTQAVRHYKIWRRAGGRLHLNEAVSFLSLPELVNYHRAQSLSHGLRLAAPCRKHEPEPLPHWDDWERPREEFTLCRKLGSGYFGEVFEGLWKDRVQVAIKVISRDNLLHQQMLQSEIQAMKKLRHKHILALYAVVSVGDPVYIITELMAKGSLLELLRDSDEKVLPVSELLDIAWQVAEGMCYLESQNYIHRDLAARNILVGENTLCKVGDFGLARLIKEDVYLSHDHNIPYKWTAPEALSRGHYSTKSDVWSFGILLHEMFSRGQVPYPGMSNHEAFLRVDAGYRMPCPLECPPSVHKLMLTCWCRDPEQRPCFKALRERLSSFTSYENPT

Cc1cccc(C)c1NC(=O)N1C/C=C\COc2cccc(c2)Nc2cc1ncn2 [Compound I-1]
remaining activity at 0.1 µM [1, 18]: 115%
remaining activity at 1 µM [1, 19]: 56%
remaining activity at 0.1 µM [2, 18]: 36%
remaining activity at 1 µM [2, 19]: 12%
remaining activity at 0.1 µM [3, 18]: 102%
remaining activity at 1 µM [3, 19]: 89%
remaining activity at 0.1 µM [4, 18]: 92%
remaining activity at 1 µM [4, 19]: 90%
remaining activity at 0.1 µM [5, 18]: 102%
remaining activity at 1 µM [5, 19]: 85%
remaining activity at 0.1 µM [6, 18]: 133%
remaining activity at 1 µM [6, 19]: 81%
remaining activity at 0.1 µM [7, 18]: 90%
remaining activity at 1 µM [7, 19]: 67%
Activity of the protein kinase when treated with compound I-1 (% control) [8, 18]: 96 % control
Activity of the protein kinase when treated with compound I-1 (% control) [8, 19]: 91 % control
remaining activity at 0.1 µM [9, 18]: 102%
remaining activity at 1 µM [9, 19]: 103%
remaining activity at 0.1 µM [10, 18]: 52%
remaining activity at 1 µM [10, 19]: 10%
remaining activity at 0.1 µM [11, 18]: 119%
remaining activity at 1 µM [11, 19]: 77%
remaining activity at 0.1 µM [12, 18]: 99%
remaining activity at 1 µM [12, 19]: 82%
remaining activity at 0.1 µM [13, 18]: 100%
remaining activity at 1 µM [13, 19]: 93%
remaining activity at 0.1 µM [14, 18]: 91%
remaining activity at 1 µM [14, 19]: 87%
remaining activity at 0.1 µM [15, 18]: 107%
remaining activity at 1 µM [15, 19]: 84%
remaining activity at 0.1 µM [16, 18]: 104%
remaining activity at 1 µM [16, 19]: 108%
remaining activity at 0.1 µM [17, 18]: 62%
remaining activity at 1 µM [17, 19]: 68%
